In PMC6681393, “Intra-Nasally Administered Oligopeptide Lunasin Acts as a Possible Anti-Psychotic Agent in Mice Models” (Medicina, 2019):
Entries after “also recorded” stand apart in the source; their conditions may differ.

What was measured:
brain monoamine levels = test: Brain monoamines and metabolites, lunasin per se (UHPLC-TOF-MS); type: in vivo, male albino ICR mice; conditions: lunasin i.n. alone; for brain dopamine level, lunasin per se (words): p < 0.01
[1] = test system: amphetamine-induced hyperlocomotion in ICR mice; test: Open field locomotor activity, amphetamine-induced hyperlocomotion; type: in vivo, male albino ICR mice; conditions: for Locomotion (distance, cm): 15-min open field; for Locomotion (distance, cm) / effect on amphetamine hyperlocomotion: n = 7–8; on Locomotion (distance, cm): key: ↑: increase; ↓: decrease; N: normalization; Nc: no changes
5-HT2A receptor = test: [125I]DOI binding displacement, 5-HT2A; design: species or system human; conditions: for inhibition of [125I]DOI specific binding: mean of duplicates (n = 2)
Experimental: (§1) The binding assay was performed by Eurofins Cerep (France) according to Bryant et al., 1996 [15]. Briefly, the binding of lunasin to 5-HT2A and 5-HT2C receptors was estimated on its ability to displace the specific binding of [^125I]DOI on cell membrane suspensions of HEK-293 cells expressing human recombinant 5-HT2A and 5-HT2C receptors. The radioligand [^125I]DOI has high affinity for 5-HT2A (Kd: 0.3 nM) and 5-HT2C (Kd: 0.9 nM) receptors. Lunasin was tested at concentrations of 1, 10 and 100 µM. The results were expressed as a percent of radioligand specific binding (n = 2).

[2] = test system: brain monoamine levels, amphetamine-treated mice; test: Brain monoamines and metabolites, amphetamine-treated mice (UHPLC-TOF-MS); type: in vivo, male albino ICR mice; conditions: for amphetamine-altered brain noradrenaline level (words): lunasin 0.1 nmol/mouse i.n. On 5-HIAA (brain level, ng/g): key: ↑: increase; ↓: decrease; N: normalization; Nc: no changes. On DA (brain dopamine level, ng/g): key: ↑: increase; ↓: decrease; N: normalization; Nc: no changes. On NA (brain noradrenaline level, ng/g): key: ↑: increase; ↓: decrease; N: normalization; Nc: no changes.
[3] = test system: locomotor activity of ICR mice; test: Open field locomotor activity, lunasin per se; type: in vivo, male albino ICR mice; conditions: lunasin 0.1 or 1 nmol/mouse i.n. alone; 15-min test; n = 7–8
[4] = test system: DOI-induced hyperlocomotion in ICR mice; test: Open field locomotor activity, DOI-induced hyperlocomotion; type: in vivo, male albino ICR mice; conditions: for effect on DOI hyperactivity (words): lunasin 1 nmol/mouse i.n., p = 0.0137
[5] = test system: dopamine D2 receptor subtype; conditions: cited from earlier work
Excerpt: (§2) Thus, lunasin at both doses normalized to control the level of behavioural changes after amphetamine in ...

[6] = test system: dopamine D1 receptor subtype; conditions: cited from earlier work
Excerpt: as §2

[7] = test system: amphetamine-induced hyper-locomotion; conditions: direct central administration (intracisternally); cited from earlier work
Excerpt: as §2

[8] = test system: apomorphine-induced climbing activity; conditions: direct central administration (intracisternally); cited from earlier work
[9] = test system: locomotion altered by ketamine; conditions: central (intracisternal) injection; cited from earlier work
[10] = test system: PCP-induced hyperlocomotion in ICR mice; test: Open field locomotor activity, phencyclidine-induced hyperlocomotion; type: in vivo, male albino ICR mice; conditions: lunasin 0.1 or 1 nmol/mouse i.n. after PCP 5 mg/kg i.p., n = 7–8
[11] = test system: brain monoamine levels, DOI-treated mice; test: Brain monoamines and metabolites, DOI-treated mice (UHPLC-TOF-MS); type: in vivo, male albino ICR mice
5-HT2C receptor = test: [125I]DOI binding displacement, 5-HT2C; design: species or system human; conditions: for inhibition of [125I]DOI specific binding: mean of duplicates (n = 2)
Experimental: as §1

[12] = lunasin i.n., amphetamine-treated mice, dose not stated
[13] = 1 and 10 µM, HEK-293 cell membranes
[14] = lunasin 0.1 nmol/mouse i.n. + amphetamine 3 mg/kg i.p., n = 6–8
[15] = lunasin 1 nmol/mouse i.n. + amphetamine 3 mg/kg i.p., n = 6–8
[16] = lunasin 1 nmol/mouse i.n., p < 0.01
[17] = lunasin 0.1 and 1 nmol/mouse i.n., p < 0.0001
[18] = lunasin i.n., DOI-treated mice, dose not stated
[19] = lunasin 0.1 nmol/mouse i.n. + DOI 3 mg/kg i.p., n = 6–8
[20] = lunasin 1 nmol/mouse i.n. + DOI 3 mg/kg i.p., n = 6–8

lunasin
brain DOPAC concentration, lunasin per se (brain monoamine levels): Neither lunasin per se nor amphetamine changed the DOPAC concentration
brain dopamine level, lunasin per se (words) (brain monoamine levels): significantly decreased dopamine level
brain dopamine level, lunasin per se (words) (brain monoamine levels; listed as lunasin): significantly decreased dopamine levels
Locomotion (distance, cm) ([1]; lunasin 0.1 nmol/mouse i.n. 15 min after amphetamine 3 mg/kg i.p.): N
effect on amphetamine hyperlocomotion ([1]; lunasin 0.1 nmol/mouse i.n., p = 0.0031): considerably decreased; also recorded: normalized to control the level of behavioural changes after amphetamine injection
Locomotion (distance, cm) ([1]; lunasin 1 nmol/mouse i.n. 15 min after amphetamine 3 mg/kg i.p.): N
effect on amphetamine hyperlocomotion ([1]; lunasin 1 nmol/mouse i.n., p = 0.0018): considerably decreased; also recorded: normalized to control the level of behavioural changes after amphetamine injection
hyper-locomotion, summary [1, 12]: fully normalized hyper-locomotion
inhibition of [125I]DOI specific binding (5-HT2A receptor; 1 µM, HEK-293 cell membranes): 1.6%
inhibition of [125I]DOI specific binding (5-HT2A receptor; 10 µM, HEK-293 cell membranes): 2.6%
binding activity (5-HT2A receptor; 100 µM): weak binding activity
inhibition of [125I]DOI specific binding (5-HT2A receptor; 100 µM, HEK-293 cell membranes): 32.5%
binding activity (5-HT2A receptor; [13]): did not show binding activity
receptor affinity (5-HT2A receptor; compared with DOI, abstract): low affinity of lunasin (at µM concentrations)
5-HIAA (brain level, ng/g) [2, 14]: N
DA (brain dopamine level, ng/g) [2, 14]: N
NA (brain noradrenaline level, ng/g) [2, 14]: N
amphetamine-altered brain noradrenaline level (words) ([2]; p < 0.01): reversed amphetamine-induced and DOI-induced (both tested doses) noradrenaline alterations to the control values
amphetamine-altered brain noradrenaline level (words) ([2]; p < 0.01, listed as lunasin): normalized noradrenaline level to control values
5-HIAA (brain level, ng/g) [2, 15]: N
5-HT (brain level, ng/g) [2, 15]: N
DA (brain dopamine level, ng/g) [2, 15]: N
HVA (brain level, ng/g) [2, 15]: N
amphetamine-altered brain HVA level ([2]; lunasin 1 nmol/mouse i.n., p < 0.001): normalized the altered levels of HVA; also recorded: reversed to control value the elevated levels of dopamine and its metabolite HVA
amphetamine-increased brain serotonin level [2, 16]: decreased the augmented serotonin; also recorded: fully normalized the levels of serotonin
amphetamine-increased brain 5-HIAA level ([2]; lunasin 0.1 and 1 nmol/mouse i.n. (both doses), p < 0.0001): decreased the augmented serotonin (p < 0.01, Figure 2d) at both doses, as well as 5-HIAA levels; also recorded: fully normalized the levels of serotonin and its metabolite 5-HIAA (both tested doses)
amphetamine-increased brain dopamine level [2, 17]: reversed to control values; also recorded: reversed to control value the elevated levels of dopamine
brain monoamine levels, summary [2, 12]: fully normalized hyper-locomotion and brain monoamine levels
effect of lunasin per se on locomotion [3]: did not influence mouse activity
Locomotion (distance, cm) ([4]; lunasin 1 nmol/mouse i.n. 15 min after DOI 3 mg/kg i.p., 15-min open field, n = 7–8): N
effect on DOI hyperactivity (words) ([4]; n = 7–8): exerted protection against DOI-induced hyper-locomotion
effect on DOI hyperactivity (words) ([4]; n = 7–8, listed as lunasin): decreased hyperactivity
hyper-locomotion, summary [4, 18]: fully normalized hyper-locomotion
dopamine D2 receptor binding [5]: does not bind to the dopamine D2 receptor subtype
dopamine D1 receptor affinity [6]: has an affinity similar to that of dopamine
amphetamine-induced hyper-locomotion [7]: reduced amphetamine-induced hyper-locomotion
apomorphine-induced climbing activity [8]: reduced amphetamine-induced hyper-locomotion and apomorphine-induced climbing activity
effect on locomotion altered by ketamine [9]: did not influence locomotion altered by ketamine
effect on PCP hyperlocomotion (words) [10]: Phencyclidine behavioural effects were not influenced
effect on PCP hyperlocomotion (words) ([10]; listed as lunasin): did not influence the PCP effect; also recorded: we did not find any influence of lunasin on PCP-induced hyperactivity
5-HIAA (brain level, ng/g) [11, 19]: N
5-HT (brain level, ng/g) [11, 19]: N
NA (brain noradrenaline level, ng/g) [11, 19]: N
5-HIAA (brain level, ng/g) [11, 20]: N
5-HT (brain level, ng/g) [11, 20]: N
HVA (brain level, ng/g) [11, 20]: N
NA (brain noradrenaline level, ng/g) [11, 20]: N
DOI-altered brain HVA level [11, 16]: normalized the altered levels of HVA
DOI-altered brain noradrenaline level ([11]; lunasin 0.1 and 1 nmol/mouse i.n. (both tested doses), p < 0.01): reversed amphetamine-induced and DOI-induced (both tested doses) noradrenaline alterations to the control values
DOI-increased brain 5-HIAA level [11, 17]: reversed the DOI up-regulated levels of serotonin and 5-HIAA almost to the control values; also recorded: fully normalized them to the control values
DOI-increased brain serotonin level [11, 17]: reversed the DOI up-regulated levels of serotonin and 5-HIAA almost to the control values; also recorded: fully normalized them to the control values
brain monoamine levels, summary [11, 18]: fully normalized hyper-locomotion and brain monoamine levels
DOI-increased brain DOPAC level ([11]; lunasin i.n., dose not stated): These altered parameters were normalized by lunasin
DOI-lowered brain HVA level ([11]; lunasin i.n., dose not stated): These altered parameters were normalized by lunasin
DOI-lowered brain noradrenaline level ([11]; lunasin i.n., dose not stated): These altered parameters were normalized by lunasin
inhibition of [125I]DOI specific binding (5-HT2C receptor; 1 µM, HEK-293 cell membranes): 4.7%
inhibition of [125I]DOI specific binding (5-HT2C receptor; 10 µM, HEK-293 cell membranes): 10.3%
inhibition of [125I]DOI specific binding (5-HT2C receptor; 100 µM, HEK-293 cell membranes): 59.7%
binding activity (5-HT2C receptor; 100 µM, compared with 5-HT2A): more considerable
binding activity (5-HT2C receptor; [13]): did not show binding activity
receptor affinity (5-HT2C receptor; compared with DOI, abstract): low affinity of lunasin (at µM concentrations)
